Assay results as given in PMC2365111, “Cytotoxicity of Poly(Phenolic)Sulfonates and Their Sodium Salts in L1210 Lymphoid Leukemia Cells” (Metal-Based Drugs, 1998).
Values after ≈ are worked out from the molar mass of the structure shown.

Tests used:
[1] = system: HeLa-S suspended cervical carcinoma; test: Cytotoxicity, HeLa-S3 growth; format: cell-based, human
Source text: (§1) CYTOTOXlCITY OF POLY(PHENOLIC)SULFONATES AND THEIR SODIUM SALTS IN L1210 LYMPHOID LEUKEMIA CELLS Fei Wang, Amy E. Warren, Cheryl R. Barnes and Iris H. Hall* Division of Medicinal Chemistry and Natural Products University of North Carolina Chapel Hill, N.C. […] Because ofthese properties it was surmised that these poly(phenolic)sulfonated compounds may have antineoplastic activity. METHODS Source of Compounds Test compounds were supplied by GeneLabs, Inc. [Redwood City, CA [Table 1]. Radioisotopes were obtained from New England Nuclear [Dupont, Boston, MA]. Substrates and co-factors were purchased om Sigma Chemical Co., [St Louis, MO]. […] Cell numbers were determined by the trypan blue exclusion technique. Solid tumor cytotoxicity was determined by Leibovitz et al. 's method utilizing crystal violeeOH and read at 562 nm (Molecular Devices). Values for cytotoxicity were expressed as EDs0 g/ml, i.e. the concentration ofthe compound inhibiting 50% ofcell growth. […] Incorporation of 4C- formate (53.0 mCi/mmol) into pyrimidines was determined by the method of Christopherson et al.[13]. […] DNA polymerase Ot activity was determined in cytoplasmic extracts isolated by Eichler et aL's method. […] Messenger-, ribosomal- and transfer-RNA polymerase enzymes were isolated with different concentrations of ammonium sulfate; individual RNA polymerase activities were determined using 3H -UTP 16,17]. […]

[2] = system: KB epidermoid nasopharynx; test: Cytotoxicity, KB growth; format: cell-based, human
Source text: as §1, with “MO]. Pentosan sulfate and other antineoplastic standards were obtained from Sigma Chemical Co. Tumor lines were obtained from American Type Culture Collection [Rockville, MD].” for “MO].”, “16,17]. Ribonucleoside reductase activity was measured using 4C -CDP with dithioerythritol.” for “16,17].”

Row | Structure (SMILES) | growth suppression, in words [1] | activity, in words [2] | ED50 ([2]; concentration inhibiting 50% of cell growth) [µg/mL]
1 | O=S(=O)(O)c1cc2c(O)c(c1)Cc1cc(S(=O)(=O)O)cc(c1O)Cc1cc(S(=O)(=O)O)cc(c1O)Cc1cc(S(=O)(=O)O)cc(c1O)Cc1cc(S(=O)(=O)O)cc(c1O)Cc1cc(S(=O)(=O)O)cc(c1O)C2 [GI-2029] | best activity |  | 
2 | O=S(=O)(O)c1cc2c(O)c(c1)Cc1cc(S(=O)(=O)O)cc(c1O)Cc1cc(S(=O)(=O)O)cc(c1O)Cc1cc(S(=O)(=O)O)cc(c1O)Cc1cc(S(=O)(=O)O)cc(c1O)Cc1cc(S(=O)(=O)O)cc(c1O)Cc1cc(S(=O)(=O)O)cc(c1O)Cc1cc(S(=O)(=O)O)cc(c1O)C2 [GI-2041] |  | active | 2.60 (≈ 1.75 µM)
